Consider two compounds from patent publication US20240010984A1, “SERUM-FREE MEDIUM FOR DIFFERENTIATION OF A PROGENITOR CELL” (Mosa Meat B.V., priority 2020, published 2024).

In experiment [1] the test system is bovine muscle progenitor cells. The experiment is described as follows: Serum-free myogenic differentiation with or without Notch pathway inhibition, brightfield microscopy (Example 5, FIG. 3). Type of experiment: cell-based. The protocol:
Myogenic progenitor cells as disclosed in Example 2 were plated in Matrigel-coated (1:200 in PBS) plates at a seeding density of 40 k cells/cm^2 and cultured for 24 h in a serum-free proliferation medium as disclosed in Example 2. Myogenic differentiation was induced by adding an exemplary serum-free differentiation medium (Table 3) in the presence and absence of DAPT (gamma-Secretase inhibitor #ab120633, abcam) at 0 μM (absence of DAPT; control medium), 1 μM, 5 μM and 10 μM. Cells were imaged with brightfield microscopy and the differentiation phenotypes were compared.

Experiment [2] has as its system Bovine muscle progenitor cells. As to the kind of experiment: Serum-free myogenic differentiation of bovine muscle progenitor cells into myocytes (Example 3, FIG. 1 and 2). Particulars: cells previously proliferated in serum-free proliferation medium, one inducer per medium (lactate 10 mM, LPA 5 uM, oxytocin 50 nM or glucagon 1 uM), different basal formulations. Type of experiment: cell-based, Bos taurus. The protocol: The DMEM/F12 1:1 or 10:1 or 1:0 or alpha-MEM or M199 medium was supplemented with albumin (recombinant human albumin from Richcore) at 0.5 mg/ml, insulin (recombinant human insulin, 10-365 from Peprotech) at 19.4 ug/ml, transferrin (recombinant human transferrin, 10-366 from Peprotech) at 10.7 ug/ml, sodium selenite (S5261 from SigmaAldrich) at 0.014 ug/ml, Ethanolamine from Sigma Aldrich cat nr E9508 at 4 ug/ml, ascorbic acid (L-ascorbic acid 2-phosphate sesquimagnesium salt hydrate, A8960 from SigmaAldrich) at 115.22 ug/ml, EGF (recombinant human EGF, AF-100-15 from Peprotech) at 10 ng/ml and one of the following inducers: lactate (Sodium L-lactate, 71718 from SigmaAldrich) at 10 mM, LPA (Oleoyl-L-α-lysophosphatidic acid sodium salt, L7260 from SigmaAldrich) at 5 uM, oxytocin (06379 from SigmaAldrich) at 50 nM, or glucagon (G2044 from SigmaAldrich) at 1 uM.
Bovine muscle progenitor cells were isolated from a bovine muscle tissue (Bos taurus) and sorted based on their positive expression of CD29 as previously described (Ding et al., Sci. Rep., 17(8): 10808 (2018)). Muscle progenitor cells were propagated in a serum-free proliferation medium for at least 8 population doublings prior to differentiation. […]

As for `C[C@H](NC(=O)Cc1cc(F)cc(F)c1)C(=O)N[C@H](C(=O)OC(C)(C)C)c1ccccc1` [DAPT], the “myogenic differentiation of bovine muscle progenitor cells into myocytes compared to control medium without DAPT” value in experiment [1] (DAPT 1 uM, 5 uM and 10 uM, serum-free differentiation medium of Table 3 (lactate 10 mM), FIG. 3) was “improved myogenic differentiation”. Also, the “number of cells that fuse into myotubes” value in experiment [1] (DAPT added during myogenic differentiation) was “increases the number of cells that fuse into myotubes”.

As for `C[C@H](O)C(=O)[O-].[Na+]` [lactate, Sodium L-lactate], the “induction of serum-free myogenic differentiation” value in experiment [2] is given as “induction of serum-free myogenic differentiation could be achieved”.
